Structures are written as SMILES. Where only a bound is given, the exact number is not on record here.

For the experiment, the target named is bovine cardiac myosin (Bos taurus, UniProt Q9BE39). Nature of the experiment: Myosin inhibition assay (PK/LDH-coupled ATPase, bovine cardiac myofibrils). The conditions noted are these: calcium concentration giving 50% activation, pH 6.8, read-out: bcMF pCa_6 IC50. The class given is biochemical. As to the method:
Small molecule agents were assessed for their ability to inhibit the enzymatic activity of bovine cardiac myosin using a biochemical assay that couples the release of ADP (adenosine diphosphate) from cardiac myosin to an enzymatic coupling system consisting of pyruvate kinase and lactate dehydrogenase (PK/LDH) and monitoring the absorbance decrease of NADH (at 340 nm) as a function of time. PK converts ADP to ATP (adenosine triphosphate) by converting PEP (phosphoenolpyruvate) to pyruvate. Pyruvate is then converted to lactate by LDH by converting NADH (nicotinamide adenine dinucleotide) to NAD (oxidized nicotinamide adenine dinucleotide). […] Prior to testing small molecule agents, the bovine myofibrils were assessed for their calcium responsiveness and the calcium concentration that achieves a 50% activation of the myofibril system was chosen as the final condition for assessing the inhibitory activity of the small molecule agents. All enzymatic activity was measured in a buffered solution containing 12 mM PIPES (piperazine-N,N′-bis(2-ethanesulfonic acid), 2 mM magnesium chloride at pH 6.8 (PM12 buffer). Final assay conditions were 1 mg/mL of bovine cardiac myofibrils, 0.4 mM PK/LDH, 50 uM ATP, 0.1 mg/mL BSA (bovine serum albumin), 10 ppm antifoam, 2 mM BME, 0.5 mM NADH, 1.5 mM PEP at the desired free calcium concentration required to achieve 50% activation of the myofibrils.
A dilution series of compound was created in DMSO such that the final desired concentration of compound would be achieved in a volume of 30 μL with a fixed DMSO concentration of 3.3% (v/v). Typically 1 μL of the dilution series were added to 384 well plate to achieve an 10 point dose response. Following the addition of 14 μL of a solution containing bovine cardiac myofibrils, PK/LDH and a solution of calcium (that achieved 50% activation), the enzymatic reaction was started with the addition of 15 μL of a solution containing ATP, PEP and NADH. The reaction progress was followed in a PerkinElmer Envision plate reader at ambient temperature using clear bottom plates. The plate reader was configured to read absorbance at 340 nm in kinetics mode for 15 minutes. Data were recorded as the slope of the absorbance response to time. The slopes of the absorbance response as a function of time were normalized to slopes on the plate containing DMSO. This normalized rate was then plotted as a function of small molecule concentration and the data was fitted to a four-parameter fit using EXCEL XLfit. The IC50 is the concentration at which fifty percent of the total response is inhibited.

Chain of bovine cardiac myosin (Q9BE39 whole entry): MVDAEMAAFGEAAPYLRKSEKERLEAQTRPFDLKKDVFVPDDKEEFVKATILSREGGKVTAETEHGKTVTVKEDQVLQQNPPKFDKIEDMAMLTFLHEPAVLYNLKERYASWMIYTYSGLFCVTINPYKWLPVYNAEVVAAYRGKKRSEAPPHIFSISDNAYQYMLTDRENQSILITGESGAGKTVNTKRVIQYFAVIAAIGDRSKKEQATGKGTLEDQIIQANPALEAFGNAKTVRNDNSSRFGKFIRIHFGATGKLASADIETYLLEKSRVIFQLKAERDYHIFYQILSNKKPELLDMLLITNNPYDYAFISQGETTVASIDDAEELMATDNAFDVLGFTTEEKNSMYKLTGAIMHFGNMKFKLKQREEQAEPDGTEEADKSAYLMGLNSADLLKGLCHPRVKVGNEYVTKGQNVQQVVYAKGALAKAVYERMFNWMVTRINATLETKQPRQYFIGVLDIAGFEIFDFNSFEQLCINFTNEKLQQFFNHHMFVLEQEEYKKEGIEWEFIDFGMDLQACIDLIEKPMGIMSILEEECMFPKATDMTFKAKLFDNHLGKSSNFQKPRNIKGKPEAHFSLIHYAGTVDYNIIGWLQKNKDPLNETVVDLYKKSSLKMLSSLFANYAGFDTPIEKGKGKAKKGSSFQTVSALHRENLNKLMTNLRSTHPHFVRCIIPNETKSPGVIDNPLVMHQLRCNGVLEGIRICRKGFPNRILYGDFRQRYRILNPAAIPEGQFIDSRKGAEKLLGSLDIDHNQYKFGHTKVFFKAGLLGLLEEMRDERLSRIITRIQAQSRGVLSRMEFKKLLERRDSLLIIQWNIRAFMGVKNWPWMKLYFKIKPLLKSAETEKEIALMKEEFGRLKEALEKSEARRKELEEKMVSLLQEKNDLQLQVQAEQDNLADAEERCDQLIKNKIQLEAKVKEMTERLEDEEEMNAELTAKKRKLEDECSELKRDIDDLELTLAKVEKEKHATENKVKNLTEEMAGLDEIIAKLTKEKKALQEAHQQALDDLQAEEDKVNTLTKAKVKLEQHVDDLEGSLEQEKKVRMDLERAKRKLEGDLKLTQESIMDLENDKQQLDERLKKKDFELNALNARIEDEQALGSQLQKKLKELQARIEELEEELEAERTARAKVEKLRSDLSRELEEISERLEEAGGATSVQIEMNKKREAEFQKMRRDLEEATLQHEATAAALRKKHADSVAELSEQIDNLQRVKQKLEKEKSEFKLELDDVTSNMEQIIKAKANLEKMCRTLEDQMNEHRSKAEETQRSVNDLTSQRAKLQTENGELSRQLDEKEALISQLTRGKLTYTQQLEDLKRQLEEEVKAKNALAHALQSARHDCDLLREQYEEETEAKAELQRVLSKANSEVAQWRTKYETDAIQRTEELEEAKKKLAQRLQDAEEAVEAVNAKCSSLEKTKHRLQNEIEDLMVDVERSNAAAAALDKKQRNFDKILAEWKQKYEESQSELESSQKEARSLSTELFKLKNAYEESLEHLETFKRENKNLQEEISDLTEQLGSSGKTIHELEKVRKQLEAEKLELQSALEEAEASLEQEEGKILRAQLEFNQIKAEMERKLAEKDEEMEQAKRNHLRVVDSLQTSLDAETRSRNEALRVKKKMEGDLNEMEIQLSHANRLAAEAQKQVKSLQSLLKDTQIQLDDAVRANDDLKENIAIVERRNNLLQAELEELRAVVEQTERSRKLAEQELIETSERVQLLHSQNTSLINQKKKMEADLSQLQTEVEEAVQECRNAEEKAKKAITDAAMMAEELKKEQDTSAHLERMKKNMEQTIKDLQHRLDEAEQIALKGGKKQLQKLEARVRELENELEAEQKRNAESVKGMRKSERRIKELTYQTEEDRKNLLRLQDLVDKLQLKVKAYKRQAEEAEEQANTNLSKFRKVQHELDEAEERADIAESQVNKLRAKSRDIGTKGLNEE
Chain of bovine cardiac myosin (P85100 whole entry partner): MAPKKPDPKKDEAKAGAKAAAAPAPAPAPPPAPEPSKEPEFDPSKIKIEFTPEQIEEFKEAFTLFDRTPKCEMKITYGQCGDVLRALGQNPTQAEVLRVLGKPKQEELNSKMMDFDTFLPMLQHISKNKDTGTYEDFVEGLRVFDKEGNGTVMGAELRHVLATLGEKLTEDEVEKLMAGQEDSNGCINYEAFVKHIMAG
Chain of bovine cardiac myosin (Q3SZE5 whole entry partner): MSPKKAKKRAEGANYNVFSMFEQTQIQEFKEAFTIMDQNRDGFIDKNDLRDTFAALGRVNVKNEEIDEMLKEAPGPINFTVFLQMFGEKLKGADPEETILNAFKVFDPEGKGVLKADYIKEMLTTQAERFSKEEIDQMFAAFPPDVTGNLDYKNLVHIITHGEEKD

On to `CC1(n2c(=O)[nH]c3c(c2=O)CC[C@H](c2ccccc2)N3)CC1` [Compound 56], for which the IC50 lay in the range of 1 to 15 µM.

`CCn1c(=O)[nH]c2c(c1=O)CC[C@H](c1ccc(F)c(F)c1)CN2` [Compound 84]: the IC50 was greater than 15 µM.

For `[2H]C1([2H])C[C@H](c2ccc(F)c(F)c2)Nc2[nH]c(=O)n(C(C)C)c(=O)c21` [Compound 101, (7R)-7-(3,4-Difluorophenyl)-3-isopropyl-5,6,7,8-tetrahydropyrido[2,3-d]pyrimidine-2,4(1H,3H)-dione-5,5-d2], the IC50 lay within 1 to 15 µM.

Consider `Cc1cccc([C@@H]2CCc3c([nH]c(=O)n(C(C)C)c3=O)N2)c1` [Compound 103], for which the 50% inhibitory concentration (IC50) is greater than 15 µM.

Regarding `CC(C)n1c(=O)[nH]c2c(c1=O)CC[C@@](c1ccccc1)(C(F)F)N2` [Compound 112], the IC50 was less than 1 µM.

Take `CCn1c(=O)[nH]c2c(c1=O)CC[C@H](c1ccc(F)cc1F)N2` [Compound 16]: the IC50 lay in the range of 1 to 15 µM.

Regarding `COC(=O)N1CCC(n2c(=O)[nH]c3c(c2=O)CC[C@H](c2ccccc2)N3)CC1` [Compound 110], the concentration for half-maximal inhibition (IC50) was in the range of 1 to 15 µM.

In the case of `CC(C)n1c(=O)[nH]c2c(c1=O)CCCN2` [Compound 10, 3-Isopropyl-5,6,7,8-tetrahydropyrido[2,3-d]pyrimidine-2,4(1H,3H)-dione], the concentration for half-maximal inhibition (IC50) is greater than 15 µM.

For the compound `CCn1c(=O)[nH]c2c(c1=O)CC[C@H](c1cccc(F)c1)N2` [Compound 61], the IC50 is 1 to 15 µM.

Turning to `O=c1[nH]c2c(c(=O)n1CC(F)F)CC[C@H](c1ccc(F)cc1)N2` [Compound 73], the 50% inhibitory concentration (IC50) was in the range of 1 to 15 µM.

Consider `Cc1cccc(-n2c(=O)[nH]c3c(c2=O)CC[C@H](C2CCC(F)(F)CC2)N3)n1` [Compound 38], for which the concentration for half-maximal inhibition (IC50) was 1 to 15 µM.

On to `O=c1[nH]c2c(c(=O)n1CC1CC1)CC[C@H](c1ccc(F)c(F)c1)N2` [Compound 82], for which the IC50 was 1 to 15 µM.

`CC(C)n1c(=O)[nH]c2c(c1=O)CC[C@H](CC1CCOCC1)N2` [Compound 62]: the IC50 is greater than 15 µM.

In the case of `CCn1c(=O)[nH]c2c(c1=O)CC[C@@](c1ccccc1)(C(C)C)N2` [Compound 132], the 50% inhibitory concentration (IC50) was greater than 15 µM.

In the case of `COC(=O)N1CCC([C@H]2CCc3c([nH]c(=O)n(C(C)C)c3=O)N2)CC1` [Compound 141], the concentration for half-maximal inhibition (IC50) was 1 to 15 µM.

On to `COc1cccc(-n2c(=O)[nH]c3c(c2=O)CC[C@H](C2CCC(F)(F)CC2)N3)n1` [Compound 39], for which the IC50 was in the range of 1 to 15 µM.

In the case of `O=c1[nH]c2c(c(=O)n1C1CCOCC1)CC[C@H](c1ccccc1)N2` [Compound 32], the half-maximal inhibitory concentration (IC50) was in the range of 1 to 15 µM.

In the case of `Cn1c(=O)[nH]c2c(c1=O)CC[C@](C)(c1cccc(F)c1)N2` [Compound 126, (R)-7-(3-Fluorophenyl)-3,7-dimethyl-5,6,7,8-tetrahydropyrido[2,3-d]pyrimidine-2,4(1H,3H)-dione], the IC50 is 1 to 15 µM.

`Cn1ccc(-n2c(=O)[nH]c3c(c2=O)CC[C@H](C2CCC(F)(F)CC2)N3)n1` [Compound 36]: the IC50 is less than 1 µM.

With `C[C@]1(c2cccc(F)c2)CCc2c([nH]c(=O)n(CC(F)(F)F)c2=O)N1` [Compound 137], the IC50 was less than 1 µM.

Turning to `O=c1[nH]c2c(c(=O)n1-c1cc(F)cc(F)c1)C[C@@H](c1ccccc1)N2` [Compound 79], the half-inhibitory concentration (IC50) is greater than 15 µM.

For the compound `CCn1c(=O)[nH]c2c(c1=O)CC[C@H](c1ccc(F)c(Cl)c1)N2` [Compound 13], the IC50 was in the range of 1 to 15 µM.

Take `CC(C)n1c(=O)[nH]c2c(c1=O)CC[C@H](CC1CC(F)(F)C1)N2` [Compound 50]: the concentration for half-maximal inhibition (IC50) is 1 to 15 µM.

Turning to `Cc1ccccc1[C@H]1CCc2c([nH]c(=O)n(C(C)C)c2=O)N1` [Compound 104], the half-maximal inhibitory concentration (IC50) fell in the range of 1 to 15 µM.

With `Cc1ccccc1[C@@H]1CCc2c([nH]c(=O)n(C(C)C)c2=O)N1` [Compound 105], the concentration for half-maximal inhibition (IC50) is greater than 15 µM.

For `CC(C)n1c(=O)[nH]c2c(c1=O)C[C@H](c1ccccc1)N2` (single isomer, unassigned) [Compound 7], the half-maximal inhibitory concentration (IC50) fell in the range of 1 to 15 µM.

On to `O=c1[nH]c2c(c(=O)n1C1CC1)CC[C@H](c1ccccc1)N2` [Compound 90], for which the IC50 is 1 to 15 µM.

For the compound `CC(C)n1c(=O)[nH]c2c(c1=O)CC[C@H](c1cccc(Cl)c1)N2` [Compound 12], the IC50 is less than 1 µM.

For the compound `CC(C)n1c(=O)[nH]c2c(c1=O)CCC(c1ccccc1)N2` (centres unmarked) [Compound 89], the IC50 lay in the range of 1 to 15 µM.

`O=c1[nH]c2c(c(=O)n1-c1cc(F)cc(F)c1)CC[C@H](c1ccccc1)N2` [Compound 65]: the half-maximal inhibitory concentration (IC50) lay within 1 to 15 µM.

Turning to `CC(C)n1c(=O)[nH]c2c(c1=O)CC[C@H](Cc1ccccc1)N2` [Compound 66], the IC50 was less than 1 µM.

Turning to `CC(C)n1c(=O)[nH]c2c(c1=O)CC[C@@](C)(c1ccccc1)N2` [Compound 107], the IC50 is greater than 15 µM.

With `CCC[C@]1(c2ccccc2)CCc2c([nH]c(=O)n(CC)c2=O)N1` [Compound 133], the half-inhibitory concentration (IC50) was 1 to 15 µM.

For the compound `O=c1[nH]c2c(c(=O)n1-c1cc(F)cc(F)c1)CC[C@H](C1CC(F)(F)C1)N2` [Compound 42], the 50% inhibitory concentration (IC50) was greater than 15 µM.

Regarding `Cc1ccccc1[C@H]1CCc2c([nH]c(=O)n(C3(C)CC3)c2=O)N1` [Compound 122], the IC50 fell in the range of 1 to 15 µM.

In the case of `CC(C)n1c(=O)[nH]c2c(c1=O)CC[C@H](c1cc(F)ccc1F)N2` [Compound 17], the IC50 lay within 1 to 15 µM.

With `C[C@]1(c2ccccc2)CCc2c([nH]c(=O)n(-c3ccccc3)c2=O)N1` [Compound 139], the IC50 is less than 1 µM.

`C[C@]1(c2cc(F)ccc2F)CCc2c([nH]c(=O)n(-c3cc(F)cc(F)c3)c2=O)N1` [Compound 135]: the 50% inhibitory concentration (IC50) is less than 1 µM.

Turning to `CC(C)n1c(=O)[nH]c2c(c1=O)CC[C@@H](c1ccc(F)c(F)c1)N2` [Compound 85], the concentration for half-maximal inhibition (IC50) is greater than 15 µM.

For `COc1cccc([C@@H]2CCc3c([nH]c(=O)n(C(C)C)c3=O)N2)c1` [Compound 93], the IC50 is greater than 15 µM.

As for `C[C@]1(c2cccc(F)c2)CCc2c([nH]c(=O)n(CC(F)F)c2=O)N1` [Compound 136], the IC50 is less than 1 µM.

In the case of `CC1(n2c(=O)[nH]c3c(c2=O)CC[C@H](c2cc(F)ccc2F)N3)CC1` [Compound 120], the IC50 lay within 1 to 15 µM.

Turning to `CC(C)n1c(=O)[nH]c2c(c1=O)CC[C@](C)(c1ccc(F)c(F)c1)N2` [Compound 111], the concentration for half-maximal inhibition (IC50) was less than 1 µM.

Turning to `COc1ccc([C@H]2CCc3c([nH]c(=O)n(C(C)C)c3=O)N2)cn1` [Compound 59], the half-inhibitory concentration (IC50) was 1 to 15 µM.

On to `CC(C)Cn1c(=O)[nH]c2c(c1=O)CC[C@H](C1CCC(F)(F)CC1)N2` [Compound 23], for which the IC50 is less than 1 µM.

Take `O=c1[nH]c2c(c(=O)n1-c1ccccc1)CC[C@H](c1cccc(F)c1)N2` [Compound 49]: the IC50 is 1 to 15 µM.

Take `CCn1c(=O)[nH]c2c(c1=O)CCC[C@@H](c1ccc(F)c(F)c1)N2` [Compound 100]: the half-inhibitory concentration (IC50) is greater than 15 µM.

For `C/C=C(\C)n1c(=O)[nH]c2c(c1=O)CC[C@H](c1ccccc1)N2` [Compound 55], the concentration for half-maximal inhibition (IC50) is 1 to 15 µM.

On to `CCn1c(=O)[nH]c2c(c1=O)CC[C@H](c1cccc(Cl)c1)N2` [Compound 11, (R)-7-(3-Chlorophenyl)-3-ethyl-5,6,7,8-tetrahydropyrido[2,3-d]pyrimidine-2,4(1H,3H)-dione], for which the IC50 is 1 to 15 µM.

As for `CC1(n2c(=O)[nH]c3c(c2=O)CC[C@H](c2cccc(F)c2)N3)CC1` [Compound 121], the half-maximal inhibitory concentration (IC50) was in the range of 1 to 15 µM.

As for `CCn1c(=O)[nH]c2c(c1=O)CC[C@](c1ccccc1)(C1CCC1)N2` [Compound 146], the IC50 was greater than 15 µM.

Take `O=c1[nH]c2c(c(=O)n1-c1ccc(F)cn1)CC[C@H](C1CCC(F)(F)CC1)N2` [Compound 33]: the half-inhibitory concentration (IC50) is less than 1 µM.

As for `O=c1[nH]c2c(c(=O)n1-c1ccccn1)CC[C@H](c1ccccc1)N2` [Compound 35], the IC50 lay in the range of 1 to 15 µM.

`CC(C)n1c(=O)[nH]c2c(c1=O)CC(F)(F)[C@@H](c1cccc(Cl)c1)N2` [Compound 130]: the IC50 was greater than 15 µM.

Regarding `O=c1[nH]c2c(c(=O)n1-c1ccccc1)CC[C@H](c1ccc(F)cc1)N2` [Compound 3, (R)-7-(4-Fluorophenyl)-3-phenyl-5,6,7,8-tetrahydropyrido[2,3-d]pyrimidine-2,4(1H,3H)-dione], the IC50 fell in the range of 1 to 15 µM.

With `CC(C)n1c(=O)[nH]c2c(c1=O)CC[C@H](C1CCOCC1)N2` [Compound 27], the IC50 lay within 1 to 15 µM.

Consider `CCn1c(=O)[nH]c2c(c1=O)CC[C@H](c1ccccc1Cl)N2` [Compound 57], for which the IC50 lay within 1 to 15 µM.

On to `CCn1c(=O)[nH]c2c(c1=O)CC[C@@](c1ccccc1)(C1CCOCC1)N2` [Compound 142], for which the IC50 is less than 1 µM.

With `CCn1c(=O)[nH]c2c(c1=O)CC[C@H](c1ccc(Cl)cc1)N2` [Compound 15], the concentration for half-maximal inhibition (IC50) is 1 to 15 µM.

A word on the IC50: it is the concentration at which inhibition is half-maximal.

Source of the values: patent publication US9663516B2, “Bicyclic-pyrimidinedione compounds” (MyoKardia, Inc., priority 2014, dated 2017).
